Test results as given in patent US10253002B2, “Compounds and methods of treating infections” (Neoculi Pty Ltd., priority 2013, dated 2019).
Converted amounts (≈) assume the structure as drawn. Read-outs that look alike come from different tables or passages of the source.

Experiments:
[1] = system: S. aureus clinical isolates (MRSA and MSSA); assay: Broth microdilution MIC, Example 4; format: cell-based, Staphylococcus aureus; conditions: for MIC / MIC50 / MIC90: Staphylococcus aureus; for MIC: 24 h
Experimental: Microtiter plates containing two-fold dilutions of each antimicrobial agent were inoculated with ˜10^5 CFU/ml of each isolate in a 100 μL final volume. Plates were incubated for 24 h at 37° C. Turbidity (absorbance at OD600) was measured using a Bio-Rad Benchmark Plus microplate spectrophotometer in Microplate Manager® version 5.2.1 (Bio-Rad). Minimum inhibitory concentration (MIC) endpoints were defined as the lowest antimicrobial concentration assessed by the spectrophotometer that inhibited bacterial growth. ATCC 49775 was included in the isolate collection as a control organism using breakpoints defined by the CLSI. The MIC50, MIC90 (concentrations that inhibited growth of the lower 50% and 90% of total organisms, respectively), and MIC range (minimum and maximum) were calculated to profile the antimicrobial susceptibility of the isolate collection.

S. pneumoniae isolates = assay: Micro-broth dilution MIC, Example 5; format: cell-based, Streptococcus pneumoniae
Experimental: For all in vitro assays, fresh pneumococcal isolates were grown overnight (O/N) on horse blood agar (HBA) plates (39 g/L Columbia blood agar base [Oxoid] 5% [v/v] defribinated horse blood [Oxoid] at 37° C. with 5% supplemented CO2). Mueller-Hinton blood agar with 5% defibrinated sheep blood (MHSBA Roseworthy Media and Blood Service) was used for disk diffusion analysis as directed by Clinical Laboratory Standards Institute (CLSI) standards. Pneumococci were routinely grown in broth consisting of 4% lysed horse blood (LHB) with Cation Adjusted Mueller Hinton Broth (CAHMB, [Difco]) at 37° C. with 5% supplemented CO2. […] Isolates were stored in HSB at −80° C.
[Micro-broth dilutions and 96 well trays are prepared by the following method: 90 μL of 4% LHB:CAMHB is aliquotted into all wells using a multichannel pipette. 90 μL of working antimicrobial stocks were no serial diluted down the tray by a 1:2 dilution. Negative broth controls and dilution control were taken into account when planning the set up of a 96 well tray.] 10 μL of bacterial suspension was then added to the appropriate wells in the 96 well tray. Appropriate positive (no antimicrobial), negative (no antimicrobial or bacteria) and negative dilution (a serial dilution control of antimicrobial and broth) controls were included in each assay. […] The MBC was determined by a 99.95% inhibition of S. pneumoniae, taking into account the dilution factor. MICs and MBCs were determined in quadruplicate and the mode was taken as the representative value. The MIC50, MIC90 and MIC range and MBC50, MBC90 and MBC range were determined according to CLSI standards. The MIC50 and MIC90, or MBC50 and MBC90, are defined by the lowest concentrations which, when all the MICs and MBCs of the isolates are arranged from lowest to highest, inhibited the 50th and 90th percentile of the total amount of isolates, respectively.

[2] = Methicillin-susceptible staphylococci (n = 10)
[3] = Total bacterial isolates (n = 30)

SMILES: CC1(C)S[C@@H]2[C@H](NC(=O)[C@H](N)c3ccccc3)C(=O)N2[C@H]1C(=O)O [Ampicillin]
- MICrange ([1]; CA-MRSA (n = 10)): 8 to 128 µg/mL
- MICrange [1, 2]: 0.25-16^ μg/ml
- MIC ([1]; read-out: Observed MIC at 24-h, MRSA580, present study): > 128 µg/mL
- MIC ([1]; read-out: Observed MIC at 24-h, MRSA698, present study): 16 µg/mL (≈ 45.8 µM)
- MIC ([1]; read-out: Original MIC at 24-h, MRSA580, preliminary studies): > 128 µg/mL
- MIC ([1]; read-out: Original MIC at 24-h, MRSA698, preliminary studies): 16 µg/mL (≈ 45.8 µM)
- MIC ([1]; ATCC 49775 / MRSA / MSSA, read-out: Observed MIC at 24-h, ATCC 49775, present study): 0.25 µg/mL (≈ 0.715 µM)
- MIC50 ([1]; CA-MRSA (n = 10)): 64 µg/mL (≈ 183 µM)
- MIC90 ([1]; CA-MRSA (n = 10)): 128 µg/mL (≈ 366 µM)
- MIC50 ([1]; HA-MRSA (n = 10)): 64 µg/mL (≈ 183 µM)
- MIC90 ([1]; HA-MRSA (n = 10)): > 128 µg/mL
- MIC50 [1, 2]: 0.25 µg/mL (≈ 0.715 µM)
- MIC90 [1, 2]: 8 µg/mL (≈ 22.9 µM)
- MIC50 [1, 3]: 16 µg/mL (≈ 45.8 µM)
- MIC90 [1, 3]: 128 µg/mL (≈ 366 µM)
- MIC (S. pneumoniae isolates; Streptococcus pneumoniae, D39, 4% LHB:CAMHB, read-out: Relative MIC with media type for D39): 0.023 µg/mL (≈ 0.0658 µM)
- MIC (S. pneumoniae isolates; Streptococcus pneumoniae, D39, 10% horse serum-supplemented broth, read-out: Relative MIC with media type for D39): 0.09 µg/mL (≈ 0.258 µM)
- MIC (S. pneumoniae isolates; Streptococcus pneumoniae, isolate A66.1, Table 22, CAMHB diluent for NCL062, read-out: MIC): 0.045 µg/mL (≈ 0.129 µM)
- MIC (S. pneumoniae isolates; Streptococcus pneumoniae, isolate D39, Table 22, CAMHB diluent for NCL062, read-out: MIC): 0.0225 µg/mL (≈ 0.0644 µM)
- MIC (S. pneumoniae isolates; Streptococcus pneumoniae, isolate P21, Table 22, CAMHB diluent for NCL062, read-out: MIC): 0.0225 µg/mL (≈ 0.0644 µM)
- MIC (S. pneumoniae isolates; Streptococcus pneumoniae, isolate WCH57, Table 22, CAMHB diluent for NCL062, read-out: MIC): 0.09 µg/mL (≈ 0.258 µM)
- MIC (S. pneumoniae isolates; Streptococcus pneumoniae, isolate WCH158, Table 22, CAMHB diluent for NCL062, read-out: MIC): 0.0225 µg/mL (≈ 0.0644 µM)
- MIC (S. pneumoniae isolates; Streptococcus pneumoniae, isolate WU-2, Table 22, CAMHB diluent for NCL062, read-out: MIC): 0.0225 µg/mL (≈ 0.0644 µM)
- MIC (S. pneumoniae isolates; Streptococcus pneumoniae, pneumococcal isolate A66.1, read-out: MIC): 0.045 µg/mL (≈ 0.129 µM)
- MIC (S. pneumoniae isolates; Streptococcus pneumoniae, pneumococcal isolate D39, read-out: MIC): 0.023 µg/mL (≈ 0.0658 µM)
- MIC (S. pneumoniae isolates; Streptococcus pneumoniae, pneumococcal isolate EF3030, read-out: MIC): 0.023 µg/mL (≈ 0.0658 µM)
- MIC (S. pneumoniae isolates; Streptococcus pneumoniae, pneumococcal isolate L82016, read-out: MIC): 0.023 µg/mL (≈ 0.0658 µM)
- MIC (S. pneumoniae isolates; Streptococcus pneumoniae, pneumococcal isolate P9, read-out: MIC): 0.023 µg/mL (≈ 0.0658 µM)
- MIC (S. pneumoniae isolates; Streptococcus pneumoniae, pneumococcal isolate P21, read-out: MIC): 0.023 µg/mL (≈ 0.0658 µM)
- MIC (S. pneumoniae isolates; Streptococcus pneumoniae, pneumococcal isolate TIGR4, read-out: MIC): 0.023 µg/mL (≈ 0.0658 µM)
- MIC (S. pneumoniae isolates; Streptococcus pneumoniae, pneumococcal isolate WCH16, read-out: MIC): 0.023 µg/mL (≈ 0.0658 µM)
- MIC (S. pneumoniae isolates; Streptococcus pneumoniae, pneumococcal isolate WCH43, read-out: MIC): 0.023 µg/mL (≈ 0.0658 µM)
- MIC (S. pneumoniae isolates; Streptococcus pneumoniae, pneumococcal isolate WCH46, read-out: MIC): 0.023 µg/mL (≈ 0.0658 µM)
- MIC (S. pneumoniae isolates; Streptococcus pneumoniae, pneumococcal isolate WCH57, read-out: MIC): 0.023 µg/mL (≈ 0.0658 µM)
- MIC (S. pneumoniae isolates; Streptococcus pneumoniae, pneumococcal isolate WCH77, read-out: MIC): 0.023 µg/mL (≈ 0.0658 µM)
- MIC (S. pneumoniae isolates; Streptococcus pneumoniae, pneumococcal isolate WCH86, read-out: MIC): 0.023 µg/mL (≈ 0.0658 µM)
- MIC (S. pneumoniae isolates; Streptococcus pneumoniae, pneumococcal isolate WCH89, read-out: MIC): 0.023 µg/mL (≈ 0.0658 µM)
- MIC (S. pneumoniae isolates; Streptococcus pneumoniae, pneumococcal isolate WCH92, read-out: MIC): 0.09 µg/mL (≈ 0.258 µM)
- MIC (S. pneumoniae isolates; Streptococcus pneumoniae, pneumococcal isolate WCH137, read-out: MIC): 0.023 µg/mL (≈ 0.0658 µM)
- MIC (S. pneumoniae isolates; Streptococcus pneumoniae, pneumococcal isolate WCH158, read-out: MIC): 0.023 µg/mL (≈ 0.0658 µM)
- MIC (S. pneumoniae isolates; Streptococcus pneumoniae, pneumococcal isolate WCH184, read-out: MIC): 0.045 µg/mL (≈ 0.129 µM)
- MIC (S. pneumoniae isolates; Streptococcus pneumoniae, pneumococcal isolate WCH211, read-out: MIC): 0.023 µg/mL (≈ 0.0658 µM)
- MIC (S. pneumoniae isolates; Streptococcus pneumoniae, pneumococcal isolate WU2, read-out: MIC): 0.023 µg/mL (≈ 0.0658 µM)
- MIC50 (S. pneumoniae isolates; Streptococcus pneumoniae, all S. pneumoniae isolates, read-out: MIC50): 0.023 µg/mL (≈ 0.0658 µM)
- MIC90 (S. pneumoniae isolates; Streptococcus pneumoniae, all S. pneumoniae isolates, read-out: MIC90): 0.023 µg/mL (≈ 0.0658 µM)
- MIC range (S. pneumoniae isolates; all S. pneumoniae isolates): 0.011 to 0.09 µg/mL

SMILES: N=C(N/N=C/c1ccc(Cl)cc1)N/N=C/c1ccc(Cl)cc1 [NCL812, 1,3-bis[(E)-(4-chlorophenyl)methyleneamino]guanidine]
- MICrange ([1]; CA-MRSA (n = 10)): 2 to 4 µg/mL
- MICrange [1, 2]: 2 to 8 µg/mL
- MICrange [1, 3]: 2 to 8 µg/mL
- MIC (S. pneumoniae isolates; Streptococcus pneumoniae, read-out: Relative MIC with media type for D39, D39, 10% horse serum-supplemented broth): 32 µg/mL (≈ 95.7 µM)
